Tests used:
Format in all cases: biochemical
[1] = biological target: T1, VEGFR2 kinase (Homo sapiens, UniProt P35968); test: VEGFR2 kinase assay (33P incorporation into Poly(Glu-Tyr)); settings: 500 nM test compound; read-out: Inhibition at 500 nM (%) VEGFr-2
T1 construct: recombinant N-terminal 6×His-tagged VEGFR2 kinase domain construct expressed by baculovirus; 6xHis (N); made in house
Procedure, shortened: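 Recombinant baculovirus-expressed N-terminal His6-tagged VEGFR2 kinase domain (6.25 ng) phosphorylated poly(Glu-Tyr) 4:1 with 100 μM ATP plus [33P]-γ-ATP in MOPS pH 7.0, 30 °C, 30 min. Test compound was at 500 nM (4% DMSO). Filter-retained radioactivity relative to DMSO control gave % inhibition.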

[2] = biological target: T2, c-Met kinase (Homo sapiens, UniProt P08581); test: c-Met kinase assay (33P incorporation into Poly(Glu-Tyr)); settings: 500 nM test compound
T2 construct: recombinant N-terminal 6×His-tagged c-Met kinase domain construct expressed from baculovirus; 6xHis (N); made in house
T2 sequence (P08581 1078-1345 limits assumed): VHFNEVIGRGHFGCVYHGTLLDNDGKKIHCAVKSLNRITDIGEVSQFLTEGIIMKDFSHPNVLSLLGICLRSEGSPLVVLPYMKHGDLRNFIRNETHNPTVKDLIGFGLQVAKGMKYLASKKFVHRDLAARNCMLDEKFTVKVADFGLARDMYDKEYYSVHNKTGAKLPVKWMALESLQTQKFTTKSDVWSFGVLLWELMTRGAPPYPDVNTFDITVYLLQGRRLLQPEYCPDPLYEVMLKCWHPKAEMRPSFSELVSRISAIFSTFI
Procedure, shortened: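 Recombinant N-terminal 6×His-tagged c-Met kinase domain (baculovirus-expressed, 5 ng) acted on Poly(Glu-Tyr) 4:1 with 100 μM ATP plus [33P]-γ-ATP in MOPS pH 7.0 buffer, 30 min at 30° C. Compound was at 500 nM. Filter-retained radioactivity was compared with the DMSO control to give percent inhibition.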

[3] = biological target: T3, Flt3 kinase (Homo sapiens, UniProt P36888); test: Flt3 kinase assay (33P incorporation into Poly(Glu-Tyr)); settings: 100 nM test compound; read-out: Inhibition at 100 nM (%) Flt-3
T3 construct: recombinant N-terminal 6×His-tagged Flt3 kinase domain construct expressed from baculovirus; 6xHis (N); made in house
T3 sequence (P36888 610-943 limits assumed): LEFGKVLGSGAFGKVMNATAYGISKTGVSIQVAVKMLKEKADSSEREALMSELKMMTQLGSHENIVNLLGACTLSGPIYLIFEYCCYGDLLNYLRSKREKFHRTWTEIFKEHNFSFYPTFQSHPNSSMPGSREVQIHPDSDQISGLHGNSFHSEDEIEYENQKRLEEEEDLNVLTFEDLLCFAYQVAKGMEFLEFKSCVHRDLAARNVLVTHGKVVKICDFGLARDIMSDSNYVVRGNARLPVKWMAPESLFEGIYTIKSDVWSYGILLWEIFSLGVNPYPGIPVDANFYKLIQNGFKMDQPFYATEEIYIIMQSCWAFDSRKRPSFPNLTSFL
Procedure, shortened: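 Baculovirus-expressed His-tagged Flt3 kinase domain (5 ng) with Poly(Glu-Tyr) 4:1 substrate, 100 μM ATP plus [33P]-γ-ATP, in MOPS pH 7.0 buffer, 30 min at 30 °C. Compound tested at a single 100 nM concentration; filter-bound radioactivity counted and percent inhibition calculated relative to DMSO control.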

T1 sequence (P35968 834-1162 limits assumed): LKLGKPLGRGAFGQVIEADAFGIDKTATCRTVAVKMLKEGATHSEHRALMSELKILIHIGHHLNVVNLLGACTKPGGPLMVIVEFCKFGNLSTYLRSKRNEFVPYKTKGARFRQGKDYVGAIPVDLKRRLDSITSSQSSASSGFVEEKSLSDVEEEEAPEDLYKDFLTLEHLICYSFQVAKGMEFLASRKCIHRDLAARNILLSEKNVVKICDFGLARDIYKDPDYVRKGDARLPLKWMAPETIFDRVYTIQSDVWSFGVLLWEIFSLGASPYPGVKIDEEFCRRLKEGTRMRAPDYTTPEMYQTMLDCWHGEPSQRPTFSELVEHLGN

Row | Structure (SMILES) | inhibition at 0.5 µM [1] | inhibition at 0.5 µM [2] | inhibition at 0.1 µM [3]
1 | COc1cc(-c2ccc3c(c2)NC(=O)/C3=C\c2[nH]c3c(c2CCC(=O)O)C(=O)CCC3)ccc1O [DCB-70082, (Z)-6-(4-hydroxy-3-methoxyphenyl)-3-((3-carboxyethyl-4-oxo-4,5,6,7-tetrahydro-1H-indol-2-yl)methylene)indolin-2-one] | 95.8% | 27.3% | 35.1%
2 | CCOC(=O)CCc1c(C=C2C(=S)Nc3ccccc32)[nH]c2c1C(=O)CCC2 [DCB-70083, 3-((3-(3-ethoxy-3-oxopropyl)-4-oxo-4,5,6,7-tetrahydro-1H-indol-2-yl)methylene)indolin-2-thione] | 23.3% | 29.8% | 16%
3 | CCOC(=O)CCc1c(C=C2C(=S)Nc3cc(Br)ccc32)[nH]c2c1C(=O)CCC2 [DCB-70085, 6-bromo-3-((3-(3-ethoxy-3-oxopropyl)-4-oxo-4,5,6,7-tetrahydro-1H-indol-2-yl)methylene)indolin-2-thione] | 25.4% | 25.1% | 18.2%
4 | CCOC(=O)CCc1c(/C=C2\C(=O)Nc3ccc(NC(=O)Nc4ccc(C)cc4)cc32)[nH]c2c1C(=O)CCC2 [DCB-70091, (Z)-5-(3-p-tolylureido)-3-((3-(3-ethoxy-3-oxopropyl)-4-oxo-4,5,6,7-tetrahydro-1H-indol-2-yl)methylene)indolin-2-one] | 24.6% | -0.5% | 11.1%
5 | CCOC(=O)CCc1c(/C=C2\C(=O)Nc3ccc(NC(=O)Nc4ccc(OC)cc4)cc32)[nH]c2c1C(=O)CCC2 [DCB-70092, (Z)-5-(3-(4-methoxyphenyl)ureido)-3-((3-(3-ethoxy-3-oxopropyl)-4-oxo-4,5,6,7-tetrahydro-1H-indol-2-yl)methylene)indolin-2-one] | 30.2% | 18.6% | 22.5%
6 | Cc1ccc(NC(=O)Nc2ccc3c(c2)/C(=C/c2[nH]c4c(c2CCC(=O)O)C(=O)CCC4)C(=O)N3)cc1 [DCB-70093, (Z)-5-(3-p-tolylureido)-3-((3-carboxyethyl-4-oxo-4,5,6,7-tetrahydro-1H-indol-2-yl)methylene)indolin-2-one] | 70.1% | 28.2% | 44.7%
7 | COc1ccc(NC(=O)Nc2ccc3c(c2)/C(=C/c2[nH]c4c(c2CCC(=O)O)C(=O)CCC4)C(=O)N3)cc1 [DCB-70094, (Z)-5-(3-(4-methoxyphenyl)ureido)-3-((3-carboxyethyl-4-oxo-4,5,6,7-tetrahydro-1H-indol-2-yl)methylene)indolin-2-one] | 79.8% | 18.9% | 52.8%
8 | CCOC(=O)CCc1c(/C=C2\C(=O)Nc3ccc(NC(=O)c4ccccc4)cc32)[nH]c2c1C(=O)CCC2 [DCB-70096, (Z)-5-benazmido-3-((3-(3-ethoxy-3-oxopropyl)-4-oxo-4,5,6,7-tetrahydro-1H-indol-2-yl)methylene)indolin-2-one] | 44.2% | 8.9% | 5.9%
9 | CCOC(=O)CCc1c(/C=C2\C(=O)Nc3cc(-c4ccc(F)cc4)ccc32)[nH]c2c1C(=O)CCC2 [DCB-70098, (Z)-6-(4-fluorophenyl)-3-((3-(3-ethoxy-3-oxopropyl)-4-oxo-4,5,6,7-tetrahydro-1H-indol-2-yl)methylene)indolin-2-one] | 20.4% | 27.2% | 4.8%
10 | O=C(O)CCc1c(/C=C2\C(=O)Nc3cc(-c4ccc(F)cc4)ccc32)[nH]c2c1C(=O)CCC2 [DCB-70099, (Z)-6-(4-fluorophenyl)-3-((3-carboxyethyl-4-oxo-4,5,6,7-tetrahydro-1H-indol-2-yl)methylene)indolin-2-one] | 79% | 22.7% | 6.9%
11 | CCOC(=O)CCc1c(/C=C2\C(=O)Nc3cc(-c4cc(F)cc(F)c4)ccc32)[nH]c2c1C(=O)CCC2 [DCB-70100, (Z)-6-(3,5-difluorophenyl)-3-((3-(3-ethoxy-3-oxopropyl)-4-oxo-4,5,6,7-tetrahydro-1H-indol-2-yl)methylene)indolin-2-one] | 17.7% | 13.1% | 12.5%
12 | O=C(O)CCc1c(/C=C2\C(=O)Nc3cc(-c4cc(F)cc(F)c4)ccc32)[nH]c2c1C(=O)CCC2 [DCB-70101, (Z)-6-(3,5-difluorophenyl)-3-((3-carboxyethyl-4-oxo-4,5,6,7-tetrahydro-1H-indol-2-yl)methylene)indolin-2-one] | 73.8% | 26.7% | 8.5%

More lines, now with the values ahead:

Row | inhibition at 0.5 µM [1] | inhibition at 0.5 µM [2] | inhibition at 0.1 µM [3] | Structure (SMILES)
13 | 13.4% | 11.5% | -2.6% | O=C(O)CCc1c(C=C2C(=S)Nc3ccccc32)[nH]c2c1C(=O)CCC2 [DCB-70084, 3-((3-carboxyethyl-4-oxo-4,5,6,7-tetrahydro-1H-indol-2-yl)methylene)indolin-2-thione]
14 | 21.9% | 21.6% | 0.5% | O=C(O)CCc1c(C=C2C(=S)Nc3cc(Br)ccc32)[nH]c2c1C(=O)CCC2 [DCB-70086, 6-bromo-3-((3-carboxyethyl-4-oxo-4,5,6,7-tetrahydro-1H-indol-2-yl)methylene)indolin-2-thione]
15 | 26.3% | 20.9% | 1.4% | O=C(O)CCc1c(/C=C2\C(=O)Nc3ccc(S(=O)(=O)N4CCCC4)cc32)[nH]c2c1C(=O)CCC2 [DCB-70087, (Z)-5-(pyrrolidin-1-ylsulfonyl)-3-((3-carboxyethyl-4-oxo-4,5,6,7-tetrahydro-1H-indol-2-yl)methylene)indolin-2-one]
16 | 17.2% | 25.3% | -2.1% | O=C(O)CCc1c(/C=C2\C(=O)Nc3ccc(S(=O)(=O)N4CCOCC4)cc32)[nH]c2c1C(=O)CCC2 [DCB-70088, (Z)-5-morpholinosulfonyl-3-((3-carboxyethyl-4-oxo-4,5,6,7-tetrahydro-1H-indol-2-yl)methylene)indolin-2-one]
17 | 64.4% | 16% | 27.2% | NS(=O)(=O)c1ccc2c(c1)/C(=C/c1[nH]c3c(c1CCC(=O)O)C(=O)CCC3)C(=O)N2 [DCB-70095, (Z)-5-sulfamoyl-3-((3-carboxyethyl-4-oxo-4,5,6,7-tetrahydro-1H-indol-2-yl)methylene)indolin-2-one]
18 | 62.5% | 14.4% | 2% | O=C(O)CCc1c(/C=C2\C(=O)Nc3ccc(NC(=O)c4ccccc4)cc32)[nH]c2c1C(=O)CCC2 [DCB-70097, (Z)-5-benazmido-3-((3-carboxyethyl-4-oxo-4,5,6,7-tetrahydro-1H-indol-2-yl)methylene)indolin-2-one]
19 | 68% | 33.7% | 75.9% | CCOC(=O)CCc1c(/C=C2\C(=O)Nc3ccc(NS(=O)(=O)c4ccccc4)cc32)[nH]c2c1C(=O)CCC2 [DCB-70102, (Z)-5-phenylsulfonamido-3-((3-(3-ethoxy-3-oxopropyl)-4-oxo-4,5,6,7-tetrahydro-1H-indol-2-yl)methylene)indolin-2-one]
